The nature of the series: Capillary wicking time of laminated membrane strip (hydrophilicity). The series is classed as physicochemical. From the text:
The terms "hydrophilic" and "wettable" are frequently used herein and are used interchangeably as antonyms for "hydrophobic". A number of procedures can be used to measure hydrophilicity. Since the membranes of the preferred embodiment resemble thin layer chromatograhic strips, hydrophilicity is here measured as the rate at which the solvent front traverses the membrane strips. Darcy's law provides a rate by relating the distance the front travels to the time t. For a fixed distance, L, the relevant measurement is the time taken for the front to reach L. A relative measure of hydrophilicity is given by comparing the time or "wicking" rate of treated laminated membranes against the time or wicking rate of untreated laminated membranes. Although relative hydrophilicity is sufficient, for purposes of this invention a membrane is considered "hydrophilic" if the flow rate is such that the front traverses a length compatible with visualizing a result (ie., 2 - 10 cm) in a time consistent with rapid diagnostic assays, (ie., less than 10 minutes and preferably less than 5 minutes).
[…] At various time intervals (0, 7, 14, 21, 28, 56, 84, 112, etc days) the hydrophilicity of the membrane was tested by immersing a strip of laminated membrane 1-3 mm into a test solution (0.1M Tris pH 7.4, 0.9% NaCl, phenol red) and measuring the time required for the solution front to migrate a distance of 5.4 cm. A more hydrophilic membrane requires a shorter time for the liquid to move 5.4 cm.

Where [1] appears, read: 0 days storage at 45° C, membrane treated with surfactant as example 4 Part E, laminated with Flexcon PM150C/V23/Poly SC9.
Where [2] appears, read: 7 days storage at 45° C, surfactant-treated (example 4 Part E), Poly SC9 laminate.
Setting [3] is: 14 days storage at 45° C, surfactant-treated (example 4 Part E), Poly SC9 laminate.
The mark [4] stands for this setting: 21 days storage at 45° C, surfactant-treated (example 4 Part E), Poly SC9 laminate.
The mark [5] stands for this setting: 28 days storage at 45° C, surfactant-treated (example 4 Part E), Poly SC9 laminate.

In the case of `CCCCCCCCCCCCCCCCO` [cetyl alcohol], under “Part B: surfactant 0.1% w/v from isopropanol”, the “membrane wicking rate as a result of the treatment” value was “decreased”.

As to `CCCCCCCCCCS(=O)(=O)O` [decane sulfonic acid], the “Wicking Time to traverse 5.4 cm strip” value runs as follows: under setting [1], 5.7 min; under setting [2], 6.4 min; under setting [3], 6.0 min; under setting [4], 6.3 min; under setting [5], 6.2 min.

`CCCCCCCCCCCCS(=O)(=O)O` [dodecane sulfonic acid]: the “Wicking Time to traverse 5.4 cm strip” value turned out to be 6.2 min under setting [1]; 6.4 min under setting [2]; 6.0 min under setting [3]; 6.3 min under setting [4]; 6.3 min under setting [5].

Turning to `CCCCCCCS(=O)(=O)O` [heptane sulfonic acid], the “Wicking Time to traverse 5.4 cm strip” value under setting [1] is 4.9 min; the “Wicking Time to traverse 5.4 cm strip” value under setting [2] is reported as 5.3 min; the “Wicking Time to traverse 5.4 cm strip” value under setting [3] was found to be 5.2 min; the “Wicking Time to traverse 5.4 cm strip” value under setting [4] turned out to be 5.2 min; the “Wicking Time to traverse 5.4 cm strip” value under setting [5] came to 5.3 min.

For `CCCCCCCCS(=O)(=O)O` [octane sulfonic acid], the “Wicking Time to traverse 5.4 cm strip” value is 5.1 min under setting [1]; 5.6 min under setting [2]; 5.4 min under setting [3]; 5.6 min under setting [4]; 5.7 min under setting [5].

Regarding `CCCCCS(=O)(=O)O` [pentane sulfonic acid], the “Wicking Time to traverse 5.4 cm strip” value reads like this: under setting [1], 4.1 min; under setting [2], 5.5 min; under setting [3], 5.4 min; under setting [4], 5.6 min; under setting [5], 5.6 min.

`CCCCCCCCCCCCOS(=O)(=O)[O-].[Na+]` [sodium dodecyl sulfate]: the “Wicking Time to traverse 5.4 cm strip” value was found to be 6.3 min under setting [1]; 7.1 min under setting [2]; 7.0 min under setting [3]; 6.4 min under setting [4]; 6.0 min under setting [5].
